Reference: ChEMBL document CHEMBL1138537, “Small-molecule scaffolds for CYP51 inhibitors identified by high-throughput screening and defined by X-ray crystallography” (Antimicrob Agents Chemother, 2007)
pKd: −log10 of the molar value. Active and inactive are the calls of the source. No cut-off for these calls is given here.

Columns and labels:
[1] = biological target: T1, Sterol 14alpha-demethylase (Mycobacterium tuberculosis, UniProt P9WPP9)
T1 sequence (P9WPP9 whole entry): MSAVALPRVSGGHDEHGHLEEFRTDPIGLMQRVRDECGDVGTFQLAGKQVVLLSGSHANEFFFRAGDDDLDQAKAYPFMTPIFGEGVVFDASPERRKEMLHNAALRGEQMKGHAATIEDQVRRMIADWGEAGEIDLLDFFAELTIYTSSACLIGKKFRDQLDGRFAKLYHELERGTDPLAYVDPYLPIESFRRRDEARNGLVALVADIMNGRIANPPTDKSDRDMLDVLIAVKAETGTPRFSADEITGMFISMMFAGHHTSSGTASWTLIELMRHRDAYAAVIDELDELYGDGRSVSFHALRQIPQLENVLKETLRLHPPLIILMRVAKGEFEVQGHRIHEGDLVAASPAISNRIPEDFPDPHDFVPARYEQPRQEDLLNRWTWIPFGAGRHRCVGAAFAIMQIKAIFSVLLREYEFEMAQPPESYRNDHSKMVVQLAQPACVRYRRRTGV

[2] = biological target: T1, Sterol 14alpha-demethylase; remark: listed apart in the source
[3] = biological target: T2, Steroid C26-monooxygenase (Mycobacterium tuberculosis, UniProt P9WPP1)
T2 sequence (P9WPP1 whole entry): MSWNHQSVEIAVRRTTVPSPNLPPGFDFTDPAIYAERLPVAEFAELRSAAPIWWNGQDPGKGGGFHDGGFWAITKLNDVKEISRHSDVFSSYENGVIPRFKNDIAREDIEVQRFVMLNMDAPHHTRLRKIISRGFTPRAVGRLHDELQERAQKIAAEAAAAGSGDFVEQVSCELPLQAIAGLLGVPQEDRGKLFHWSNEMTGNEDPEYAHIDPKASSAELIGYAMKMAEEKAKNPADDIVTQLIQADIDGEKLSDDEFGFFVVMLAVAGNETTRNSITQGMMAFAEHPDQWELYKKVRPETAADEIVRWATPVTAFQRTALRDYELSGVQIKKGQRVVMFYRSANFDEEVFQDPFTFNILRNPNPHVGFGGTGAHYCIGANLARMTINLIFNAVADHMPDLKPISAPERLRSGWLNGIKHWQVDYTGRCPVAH

[4] = system: Mycobacterium tuberculosis; assay: Antimycobacterial activity against Mycobacterium tuberculosis H37Rv at 500 uM after 4 days by alamar blue assay; format: functional, organism-based
[5] = system: Mycobacterium tuberculosis; assay: Antimycobacterial activity against Mycobacterium tuberculosis H37Rv at 250 uM after 4 days by alamar blue assay; format: functional, organism-based
Cytochrome P450 130 = biological target: T3, Cytochrome P450 130 (Mycobacterium tuberculosis, UniProt P9WPN5)
T3 sequence (P9WPN5 whole entry): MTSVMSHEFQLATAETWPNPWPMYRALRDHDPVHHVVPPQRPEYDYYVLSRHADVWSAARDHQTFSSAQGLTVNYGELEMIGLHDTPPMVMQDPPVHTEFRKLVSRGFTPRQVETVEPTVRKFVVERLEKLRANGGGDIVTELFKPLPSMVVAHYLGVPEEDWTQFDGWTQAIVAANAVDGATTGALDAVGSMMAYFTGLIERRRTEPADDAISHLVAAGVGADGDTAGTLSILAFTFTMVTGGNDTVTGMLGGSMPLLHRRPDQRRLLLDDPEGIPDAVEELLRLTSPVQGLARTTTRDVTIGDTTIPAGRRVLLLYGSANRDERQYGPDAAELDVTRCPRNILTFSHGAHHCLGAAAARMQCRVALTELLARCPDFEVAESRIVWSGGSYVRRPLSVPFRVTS

[6] = system: Mycobacterium tuberculosis; assay: Antimycobacterial activity against Mycobacterium tuberculosis H37Rv at 100 uM after 4 days by alamar blue assay; format: functional, organism-based
[7] = system: Mycobacterium tuberculosis; assay: Antimycobacterial activity against Mycobacterium tuberculosis H37Rv at 200 uM after 4 days by alamar blue assay; format: functional, organism-based

## C[C@]12CC[C@@H]3c4ccc(O)cc4CC[C@H]3[C@@H]1C[C@@H](O)[C@@H]2O [ESTRIOL]
[1]
  pKd: 4.00

## CCC1(C)CC(CCN)(c2ccc(OC)cc2)CCO1 (stereo not drawn)
[2]
  pKd: 5.30

## NCC(=O)N1c2ccccc2Sc2ccccc21
[2]
  pKd: 5.30

## O=C1c2cc(O)ccc2-c2ccc(O)cc21
[1]
  pKd: 4.60

## Nc1ccc(NS(=O)(=O)c2ccc(Cl)cc2)cc1
[2]
  pKd: 5.30

## COc1ccccc1C(CCN)c1ccco1 (stereo not drawn)
[2]
  pKd: 5.30

## c1ccc(-c2c[nH]cn2)cc1
[1]
  pKd: 5.89

## CCC(C(=O)Nc1ccncc1)c1ccccc1 (stereo not drawn)
[3]
  pKd: 2.70
[4]
  Activity: Active
[5]
  Activity: Active
Cytochrome P450 130
  pKd: 3.59

## O=C(Nc1ccncc1)C1(c2ccccc2)CCOCC1
[2]
  pKd: 5.30

## O=C(Nc1ccncc1)C(NS(=O)(=O)c1cccc2nsnc12)c1ccccc1 (stereo not drawn)
[2]
  pKd: 5.30

## O=C(c1ccc(O)cc1)c1ccc(O)cc1
[6]
  Activity: Active
[3]; mycobacterium tuberculosis
  Activity: Not Active
[7]
  Activity: Active
Cytochrome P450 130; mycobacterium tuberculosis
  Activity: Not Active
[1]
  pKd: 4.55
